Results published in patent US20150291597A1, “NOVEL ORALLY BIOAVAILABLE BREATHING CONTROL MODULATING COMPOUNDS, AND METHODS OF USING SAME” (Galleon Pharmaceuticals, Inc., priority 2012, published 2015).

What was measured:
[1] = Pharmacokinetics and oral bioavailability in the rat (IV and PO dosing, plasma LC-MS/MS); format: in vivo, Sprague-Dawley rats; conditions: Sprague-Dawley, oral versus intravenous dosing
Description: Sprague-Dawley rats (200-300 g) were fed a standard laboratory rodent diet and housed in individual cages on a 12-hour light and 12-hour dark cycle with room temperature maintained at 22±3° C. and relative humidity at 50±20%. Rats were fasted overnight before dosing, with food returned after the 6 hour blood samples were obtained. Bedding was removed until after the 6 hour blood samples were obtained. Water was provided ad libitum throughout the study.
Dosing solution of test compound was prepared in desired oral formulation for oral administration via gavage needle at 10-30 mg/kg (10 mL/kg) to three or four rats. All blood samples (250 uL per sample) were taken via jugular vein or femoral vein at 0 (predose), 15, and 30 min and 1, 2,4, 6, 8, and 24 h after oral dosing. […]
Plasma samples (incurred study samples, calibration standards, quality controls) were normally prepared as follows. […] Calibration standards were typically prepared in the range of 2 ng/ml to 10 μg/mL for quantitation. […]
All pharmacokinetic parameters were determined based on a non-compartmental approach using WinNonlin software (Pharsight, Version 5.1). The terminal elimination half-life (t1/2) was calculated as ln2/λz using the slope (λz) from linear regression analysis of the terminal phase of the plasma concentration-time curve on a semi-log scale. […]

anesthetized rats = assay: Anesthetized rat spirometry screening assay (respiratory rate, tidal volume, minute volume; IV bolus); format: in vivo; conditions: 0.3 mg/kg IV bolus
Source text: Anesthetized rats provide a quick method of screening compounds for respiratory and cardiovascular activity. In contrast to the conscious rat model, this model offers an experimental set up with less variation in the baseline cardiovascular and respiratory measures. Compounds screened in this assay may be examined in a conscious rat model.
Rats were initially anesthetized with 3% isoflurane (inhaled) and femoral artery and vein cannulas were surgically inserted. Once cannulated, the rats were transitioned to urethane anesthesia (1.5 g/kg; i.v.) and a tracheal cut-down was performed. After placing the tracheal cannula, it was connected to a pneumotach to record respiratory airflow from which respiratory rate (RR), tidal volume (VT), and their product minute volume were derived. After the surgical preparation was complete, animals were allowed to stabilize for 30 minutes while respiratory rate, tidal volume, minute volume, blood pressure and heart rate were recorded continuously. Arterial blood gases (ABG) were obtained from arterial blood collected from the femoral artery. ABG measurements were taken before and 6 minutes after vehicle and each dose of compound administered. Compounds being screened were administered via bolus injections through the venous cannula followed by a saline flush (total time of administration is approximately 30 seconds), and the animal was monitored for at least 6 minutes for changes in cardiovascular efforts. Compounds were prepared in formulations identified to ensure optimal solubility. As such, vehicle controls were matched for the formulation of each compound tested. Dosing of the compound being screened was 0.1 and 0.3 mg/kg. The next dose was not administered until all cardiovascular and respiratory measures had returned to baseline levels. The positive control compounds used were N-[4,6-di-(n-propylamino)-[1,3,5]triazin-2-yl]-O,N-dimethyl-hydroxylamine or N-[2,6-di-(n-propylamino)-[1,3]pyrimidin-4-yl]-O,N-dimethyl-hydroxylamine, both administered at the end of each screening experiment (0.3 mg/kg dose) to validate the experiment and also to serve as a measure with which the compound being screened could be compared.
Data were analyzed by collecting cardiovascular and respiratory data in 30 second averages (BINs). Data were plotted 2 minutes before challenge and then 6 minutes after challenge.
FIGS. 2A-2F summarize the effects of individual compounds on peak minute ventilation (increase in VE), overall increase in 2 minute area under the curve (AUC) which is a cumulative measure of effect, along with compound stability (half-life) in rat and human microsomes.

SMILES: C#CCNc1nc(NCCC)nc(N(C)OC)n1.Cl [Compound 5a, O,N-Dimethyl-N-[4-(n-propylamino)-6-(prop-2-ynylamino)-[1,3,5]triazin-2-yl]-hydroxylamine hydrochloride]
- bioavailability [1]: 36%
- duration of the increase in minute ventilation (anesthetized rats): approximately 2 minutes
- increase in minute ventilation above baseline values (anesthetized rats): up to 143%
- increase in respiratory rate (anesthetized rats): up to 42%
- increase in tidal volume (anesthetized rats): up to 73%
